Experiment [1] relates to wild-type CHO-K1 cells, ChemerinR and other GPCRs. As to the kind of experiment: Aequorin-based assay on wild-type CHO-K1 cells and CHO-K1 cells expressing ChemerinR and other GPCRs. In kind it is cell-based. The settings on record: data not shown. The text has this:
The human coding sequences (accession numbers AC005946, M84562 and M60626, respectively) were amplified by PCR from human genomic DNA, cloned into the pcDNA3 (Invitrogen) and pEFIN3 (Euroscreen) vectors and sequenced. The pEFIN3 constructs were transfected, using Fugene 6, into CHO-K1 cells, expressing or not Gα16 and apoaequorin. G418-resistant clones were characterized for receptor expression by Northern blotting. A functional assay based on the luminescence of mitochondrial aequorin was performed as described (42). Results were expressed as relative light units (RLU) or as the percentage of the response to 20 μM ATP.

The target in experiment [2] is T1, FPRL2 (Homo sapiens, UniProt P25089).
T1 sequence (P25089 1-353): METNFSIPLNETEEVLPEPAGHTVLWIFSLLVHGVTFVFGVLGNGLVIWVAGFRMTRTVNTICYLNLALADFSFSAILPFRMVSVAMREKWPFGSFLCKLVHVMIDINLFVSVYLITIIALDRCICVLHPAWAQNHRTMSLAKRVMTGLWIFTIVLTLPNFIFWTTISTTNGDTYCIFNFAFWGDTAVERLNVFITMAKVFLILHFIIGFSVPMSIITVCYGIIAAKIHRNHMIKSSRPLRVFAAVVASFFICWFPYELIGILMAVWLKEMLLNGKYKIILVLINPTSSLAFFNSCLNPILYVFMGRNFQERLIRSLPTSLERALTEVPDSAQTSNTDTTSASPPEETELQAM
Description: Aequorine assay on human FPRL2 expressing cells (Example 9). In kind it is cell-based. Also on record: expressed in transfected cells; host or cells: CHO-K1 (with or without Galpha16 and apoaequorin). To be noted: peptides 2.5 μM to 0.4 nM, Mab 500 ug/ml to 5 ug/ml; FIG. 15. Here is the method: Functional responses were analyzed by recording the luminescence of aequorine in human FPRL2 and FPRL1 expressing cells following the addition of agonists or purified monoclonal antibodies.
In brief, cells were collected from plates with PBS containing 5 mM EDTA, pelleted, resuspend at 5×10^6 cells/ml in DMEM/F-12 medium containing 0.1% bovine serum albumin, incubated with 5 μM coelenterazine H (molecular probes, Inc. Eugene, Oreg.) for 4 h at room temperature and diluted in DMEM/F-12 medium at a concentration of 5×10^5 cells/ml. Cells where then mixed in an 96 wells plate with the ligands or purified monoclonal antibodies. The light emission was recorded over 60 sec using a microlumat Luminometer (EG&G Berthold, microplate luminometer LB 96V).
Each data point is in duplicate. […] Human FPRL1 expressing cells were used as negative control to Mab. Functionality of these cells has been control with Humanin.

On to `CC[C@H](C)[C@H](NC(=O)[C@H](CCSC)NC(=O)CNC(=O)[C@H](CC(C)C)NC(=O)[C@H](CCSC)NC(C)=O)C(=O)N[C@@H](CCCCN)C(=O)N[C@@H](CC(N)=O)C(=O)N[C@@H](CO)C(=O)N[C@@H](CC(C)C)C(=O)N[C@@H](Cc1ccccc1)C(=O)NCC(=O)N[C@@H](CO)C(=O)N[C@H](C(=O)N[C@@H](CCC(=O)O)C(=O)N[C@H](C(=O)N[C@@H](Cc1c[nH]c2ccccc12)C(=O)N1CCC[C@H]1C(=O)N[C@@H](Cc1c[nH]c2ccccc12)C(=O)N[C@@H](CCC(N)=O)C(=O)N[C@H](C(=O)N[C@@H](CC(C)C)C(=O)O)C(C)C)[C@@H](C)O)C(C)C` [F2L], for which, in experiment [1], the “activity on all other cell lines tested” value was “completely inactive”. Besides, in experiment [2], the “activation of human FPRL2 expressing cells” value is recorded as “activates”.

The record behind these values is patent publication US7659251B2, “Ligand for G-protein coupled receptor FPRL2” (priority 2004, dated 2010).
